We go through 8 molecules from ChEMBL document CHEMBL1201862, “PubChem BioAssay data set” (2004).

Among the test systems are U-251; HOP-92; NCI-H23; SW-620; HT-29; NCI-H522; HCT-15; EKVX; OVCAR-8; SK-MEL-28; NCI-H460; HL-60; SK-OV-3; SR; KM12; HOP-62; SN12C; LOX IMVI; MDA-N.
Common to all, as to assay: growth of human tumour cells (NCI), 48 h

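Cells were grown in 96-well plates and exposed to each compound for 48 hours at five concentrations; endpoints were interpolated linearly between bracketing concentrations, or set to the highest concentration if not reached. GI50 = concentration required for 50% inhibition of growth.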 The source made the active and inactive calls. Cut-off read from the data, not from the text of the source: active = GI50 up to about 1.1 µM and inactive = higher.

Regarding `O=c1cc(CO)oc2c3c(cc(O)c12)OCC(COC1OC(CO)C(O)C(O)C1O)=CC3` (stereo not given), the GI50 in the test with U-251, in the test on HOP-92, in the test with NCI-H23, in the test with SW-620, with HT-29 and with NCI-H522 was > 100 µM (inactive) each time. The GI50 in the test with HCT-15 was above 100 µM; in the test with EKVX it was > 100 µM (inactive); with OVCAR-8 it was > 100 µM (inactive); with SK-MEL-28 it was > 100 µM (inactive); in the test with NCI-H460 it was > 100 µM (inactive); in the test on HL-60, > 100 µM (inactive). The GI50 with SK-OV-3, in the test on SR, in the test with KM12, in the test on HOP-62, in the test on SN12C and in the test with LOX IMVI was > 100 µM (inactive) each time.

As for `Nc1cnc2c(c1)c(=O)nc1n2CCS1`, the GI50 in the test on U-251, with HOP-92, with NCI-H23, with SW-620, in the test on HT-29 and with MDA-N was > 100 µM (inactive) in each case. Also, the GI50 with HCT-15 was above 100 µM; in the test on EKVX it was 39.3 µM (inactive); in the test on OVCAR-8, > 100 µM (inactive); in the test on SK-MEL-28, > 100 µM (inactive); in the test with NCI-H460 it was > 100 µM (inactive); in the test with HL-60, > 100 µM (inactive). Also, the GI50 with SK-OV-3 was > 100 µM (inactive); with KM12, 55.1 µM (inactive); with HOP-62 it was > 100 µM (inactive); in the test with SN12C, > 100 µM (inactive); in the test on LOX IMVI, > 100 µM (inactive).

On to `CC1=C(C(=O)Nc2ccccc2)C(c2ccc(C(C)C)cc2)C(C(=O)Nc2ccccc2)=C(C)N1`, for which the GI50 in the test on U-251 was 16 µM (inactive); with HOP-92 it was 14.2 µM (inactive); in the test on NCI-H23, 20 µM (inactive); with SW-620, 17.2 µM (inactive); in the test on HT-29, 15.2 µM (inactive); in the test with NCI-H522, 15.1 µM (inactive). The GI50 with HCT-15 is 14.8 µM; in the test on EKVX it was 25.3 µM (inactive); in the test on OVCAR-8 it was 22.3 µM (inactive); in the test on SK-MEL-28, 22.3 µM (inactive); in the test with NCI-H460 it was 18.9 µM (inactive); with HL-60, 9.59 µM (inactive). Also, the GI50 was 22.9 µM (inactive) in the test on SK-OV-3; 10.6 µM (inactive) in the test on SR; 22.2 µM (inactive) in the test with KM12; 25.3 µM (inactive) in the test on HOP-62; 13.6 µM (inactive) with SN12C; 15 µM (inactive) with LOX IMVI.

Regarding `Oc1ccc2c(c1)c1c(n2CCN2CCOCC2)-c2ccccc2CC1`, the GI50 in the test on U-251 was 25.6 µM (inactive); in the test with NCI-H23, 27.8 µM (inactive); in the test on SW-620 it was 30.1 µM (inactive); in the test on HT-29 it was 24.2 µM (inactive); with MDA-N, 45.4 µM (inactive); with HCT-15, 25.6 µM. Moreover, the GI50 with EKVX is 35.5 µM (inactive); with OVCAR-8, 33.6 µM (inactive); in the test on SK-MEL-28 it was 18.6 µM (inactive); in the test with NCI-H460 it was 5.83 µM (inactive); with HL-60 it was 42.3 µM (inactive); with SK-OV-3 it was 42.2 µM (inactive). Also, the GI50 in the test with SR was 24.8 µM (inactive); with KM12 it was 17.8 µM (inactive); in the test on HOP-62, 24.7 µM (inactive); in the test with SN12C, 41.8 µM (inactive); with LOX IMVI, 23.6 µM (inactive).

For the molecule `Cc1cc(Cl)ccc1NC(=O)C1C(=O)N(c2ccc(Cl)cc2C)C(=O)/C1=N\N` (stereo not given), the GI50 with U-251 is 33 µM (inactive); in the test with HOP-92, 34.7 µM (inactive); in the test on NCI-H23, 36.9 µM (inactive); in the test on SW-620, 42.4 µM (inactive); in the test with HT-29 it was 53.6 µM (inactive); in the test on NCI-H522, 53.5 µM (inactive). Moreover, the GI50 with HCT-15 was 34.8 µM; with EKVX, 57.5 µM (inactive); in the test with OVCAR-8, 48.3 µM (inactive); in the test with SK-MEL-28 it was 52.5 µM (inactive); with NCI-H460 it was 51.6 µM (inactive); in the test with HL-60 it was 24.5 µM (inactive). In addition, the GI50 is 97.5 µM (inactive) in the test on SK-OV-3; 26.6 µM (inactive) with SR; 25.4 µM (inactive) in the test on KM12; 40.7 µM (inactive) in the test with HOP-62; 36.6 µM (inactive) in the test on SN12C; 51.2 µM (inactive) in the test with LOX IMVI.

Regarding `Cc1c(NC(=O)c2cc([N+](=O)[O-])cc([N+](=O)[O-])c2)c(=O)n(-c2ccccc2)n1C`, the GI50 is > 100 µM (inactive) in the test with U-251; 76.9 µM (inactive) in the test on HOP-92; > 100 µM (inactive) in the test with NCI-H23; > 100 µM (inactive) in the test with SW-620; 33.2 µM (inactive) with HT-29; > 100 µM (inactive) in the test on MDA-N. Besides, the GI50 with HCT-15 is 83.9 µM; in the test with OVCAR-8, > 100 µM (inactive); in the test with SK-MEL-28, > 100 µM (inactive); with NCI-H460, 97.7 µM (inactive); with HL-60, > 100 µM (inactive); in the test with SK-OV-3, > 100 µM (inactive). Further, the GI50 in the test with SR was 69.8 µM (inactive); in the test on KM12 it was 82.2 µM (inactive); with HOP-62 it was > 100 µM (inactive); with SN12C, > 100 µM (inactive); in the test on LOX IMVI, > 100 µM (inactive).

As to `CN(/N=C/c1ccnc2ccccc12)c1ccc(Cl)cc1[N+](=O)[O-]`, the GI50 is > 100 µM (inactive) with U-251; 25.8 µM (inactive) in the test with HOP-92; 8.57 µM (inactive) in the test with NCI-H23; > 100 µM (inactive) with SW-620; 98.2 µM (inactive) in the test on HT-29; > 100 µM (inactive) in the test with NCI-H522. Further, the GI50 in the test with MDA-N was > 100 µM (inactive); in the test on HCT-15, above 100 µM; in the test on EKVX, 12.2 µM (inactive); in the test with OVCAR-8, 85.5 µM (inactive); in the test with NCI-H460, > 100 µM (inactive); in the test on HL-60, > 100 µM (inactive). For the same molecule, the GI50 in the test on SK-OV-3 is > 100 µM (inactive); with SR, 2.64 µM (inactive); in the test on KM12, > 100 µM (inactive); in the test on HOP-62, 31.8 µM (inactive); in the test with SN12C it was > 100 µM (inactive).

As for `CCCCCc1cc2cc3c(c(O)c2c(=O)[nH]1)C1(CCC3)C(=O)c2c(O)ccc(O)c2C1=O`, the GI50 was > 100 µM (inactive) in the test with U-251; > 100 µM (inactive) in the test with HOP-92; > 100 µM (inactive) with NCI-H23; 56 µM (inactive) in the test with SW-620; > 100 µM (inactive) in the test with HT-29; > 100 µM (inactive) with NCI-H522. The GI50 is > 100 µM (inactive) in the test with MDA-N; above 100 µM in the test with HCT-15; > 100 µM (inactive) with EKVX; 59.3 µM (inactive) with OVCAR-8; > 100 µM (inactive) in the test on SK-MEL-28; > 100 µM (inactive) in the test on NCI-H460. Besides, the GI50 in the test with HL-60 was > 100 µM (inactive); with SR, > 100 µM (inactive); in the test on KM12, > 100 µM (inactive); in the test with HOP-62 it was 83.9 µM (inactive); in the test on SN12C, > 100 µM (inactive); in the test on LOX IMVI, > 100 µM (inactive).
